Test results: patent US20220096449A1, “METHOD OF TREATMENT WITH TRADIPITANT” (Vanda Pharmaceuticals Inc., priority 2018, published 2022)
Values joined by “and” are separate entries in the source; they are usually repeats but may differ in a detail not shown here. Equal entries are not always repeated. Marks after values point to notes of the source that are not given here.

Experiments:
[1] = system: apomorphine-induced emesis; test: Apomorphine emetic challenge in beagle dogs; assay type: in vivo, beagle dog; details: for Total No. Emetic Episodes: apomorphine 0.1 mg/kg iv 2 hours later, 5 dogs
Method: Over the five (5) weeks of the study, each animal receives each of the treatments, but only one per week. The purpose of this study is to determine if tradipitant suppresses apomorphine-induced emesis.
All animals are dosed over a period of five (5) weeks, with each dog receiving one of five different treatments on each day of dosing.
All dogs are fasted overnight prior to each treatment day and then fed approximately one (1) hour after oral dosing (approximately one (1) hour prior to administration of apomorphine). Individual doses are adjusted weekly for changes in body weight.
The dose regimen consists of a 5×5 Latin square design, in which each subject receives 1 dose or dose combination per week (6 day washout) as shown in Table 3 below.

[2] = Plasma concentration of tradipitant 2 hours post-dose in dogs; assay type: in vivo, beagle dog; details: individual dogs
Method: All animals are dosed over a period of five (5) weeks, with each dog receiving one of five different treatments on each day of dosing. […] In cases where apomorphine is administered alone, without prior treatment with tradipitant or aprepitant, apomorphine is given at approximately the same time as when given in combination with tradipitant or aprepitant.

NK-1 receptor = NK-1 receptor (Meriones unguiculatus, UniProt Q5DUB1); test: NK-1 agonist (GR73632)-induced foot-tapping behavior in gerbils; assay type: in vivo; design: from tissue; host or cells: living gerbils (central NK-1 receptors); details: gerbil
NK-1 receptor, sequence (Q5DUB1 whole entry): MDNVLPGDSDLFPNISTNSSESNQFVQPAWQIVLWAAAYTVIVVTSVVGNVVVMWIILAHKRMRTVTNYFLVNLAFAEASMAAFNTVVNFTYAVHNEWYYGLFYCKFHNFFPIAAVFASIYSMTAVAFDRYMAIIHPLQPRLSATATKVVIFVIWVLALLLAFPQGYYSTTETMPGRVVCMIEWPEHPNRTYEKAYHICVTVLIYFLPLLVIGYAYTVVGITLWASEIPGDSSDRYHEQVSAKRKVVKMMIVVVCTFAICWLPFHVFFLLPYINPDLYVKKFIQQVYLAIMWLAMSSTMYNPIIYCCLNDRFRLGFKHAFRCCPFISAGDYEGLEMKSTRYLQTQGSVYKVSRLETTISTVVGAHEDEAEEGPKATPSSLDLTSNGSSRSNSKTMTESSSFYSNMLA
Method: Male Mongolian gerbils (Harlan Sprague Dawley, Indianapolis, Ind.) weighing 26 to 40 grams are administered the selective neurokinin-1 receptor agonist GR73632 ([…]) via direct, vertical, free-hand intracerebroventricular (icv) injection to a depth of 4.5 mm below bregma with a cuffed 27-gauge needle attached to a 50 μl Hamilton syringe Immediately after injection, animals are placed individually into isolated chambers with pressure-sensitive velocimeter platform floors (San Diego Instruments acoustic startle apparatus) that detect and quantify vibration. The San Diego Instruments “SR” DOS-based computer program is used on a PC to record the number of foot-taps over the following 6 to 10 minutes, beginning 30 seconds after the floor is lightly tapped. Raw data are converted with a Microsoft® Excel® (Microsoft® and Excel® are registered trademarks of Microsoft Corp., Redmond, Wash.) macro that determines the number of events over threshold (125) in each 250-millisecond time bin over the 5.5 minutes following onset of observation. The total number and average intensity of events over the duration is determined. Total number of taps is analyzed with one-way ANOVA and post-hoc Dunnett's test using JMP statistical software.
A dose-response curve (with doses of 0.3, 1, 3 and 10 pmols, icv) is initially generated with the NK-1 agonist GR73632.
NK-1 antagonists are tested for their ability to attenuate GR73632-induced foot tapping. NK-1 antagonists are administered (po) via oral feeding tube at doses and time points specified in each experiment. All animals receive only one dose of NK-1 antagonists in all tests.
NK-1 antagonists are administered at multiple doses (at least 3; one dose per animal) and response to GR73632 is measured.
NK-1 receptor antagonists are administered at multiple pre-treatment times (one administration per animal) including at 0.5, 1, 2, 4, 7, 16, and 24 hours prior to GR73632 injection. GR73632 (Peninsula Labs, CA) is dissolved in saline. Tradipitant is dissolved in 1% CMC/0.5% SLS/0.085% PVP vehicle.

healthy subjects = test: Gamma scintigraphic gastrointestinal motility study in healthy subjects; assay type: in vivo, human; details: single oral dose 20 mg or 200 mg
Method: A single-center, randomized, double-blind, placebo-controlled study is conducted to investigate the effect of tradipitant on small bowel transit time. A total of 15 healthy subjects, 12 men and 3 women, between the ages of 19 and 63 years are enrolled in the study and receive at least 1 dose of study medication. A total of 13 subjects complete the study. Subjects are randomized to receive 20 mg of tradipitant, 200 mg of tradipitant, or placebo as a single oral dose within each of 3 periods, co-administered with a capsule radiolabeled with a maximum of 1MBq ^111In. Four hours post-dose, all subjects also receive a second capsule radiolabeled with a maximum of 4MBq ^99mTc. Each subject receives all 3 doses during the study. For all dosing regimens, in vivo gamma scintigraphic studies are performed at predetermined intervals, and the following scintigraphic parameters are analyzed: onset and completion of gastric emptying, onset and completion of colon arrival, initiation and completion of small bowel transit, and initial and complete disintegration of the capsule (anatomical location and time).

NK-2 receptor = biological target: T1, NK-2 receptor (Homo sapiens, UniProt P21452); test: NK-2 receptor inhibition; assay type: binding
T1 sequence (P21452 1-398): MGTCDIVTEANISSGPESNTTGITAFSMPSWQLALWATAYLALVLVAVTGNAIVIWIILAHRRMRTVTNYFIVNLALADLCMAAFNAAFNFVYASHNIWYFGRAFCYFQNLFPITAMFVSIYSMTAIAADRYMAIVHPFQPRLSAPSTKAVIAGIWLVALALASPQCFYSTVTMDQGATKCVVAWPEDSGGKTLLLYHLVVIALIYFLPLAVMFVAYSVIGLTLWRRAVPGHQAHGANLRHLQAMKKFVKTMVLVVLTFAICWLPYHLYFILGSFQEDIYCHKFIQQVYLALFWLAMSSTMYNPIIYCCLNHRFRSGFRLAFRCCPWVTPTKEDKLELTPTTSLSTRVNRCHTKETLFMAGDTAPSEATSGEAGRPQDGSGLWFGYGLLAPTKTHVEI

[3] = system: panel of 74 other receptors, enzymes, and ion channels; test: Binding panel of 74 other receptors, enzymes and ion channels; details: test concentration of 1 μM; any of 74 targets
brain NK-1 receptors = test: Brain NK-1 receptor occupancy with tracer GR205171; assay type: in vivo; details: p.o., tracer GR205171 iv
Method: A tracer NK-1 antagonist compound (GR205171) is used to evaluate the ability of other NK-1 antagonists to occupy the brain NK-1 receptors. In these studies, the test compounds are administered orally and the tracer compound is administered intravenously afterward. The occupancy of the NK-1 receptors is evaluated by quantitating the amount of the tracer compound bound to the brain NK-1 receptors after increasing doses of the test compounds.

time after administration with significant inhibition of foot-tapping (NK-1 receptor; 0.1 mg/kg po): up to 7 hours
effect on foot-tapping by 16 hours after administration (NK-1 receptor; 0.1 mg/kg po, 16 hours): significantly diminished
inhibition at 1 mg/kg (NK-1 receptor; 1 mg/kg, 16 hours after administration): > 50%
ED50 (NK-1 receptor; oral, 2 hours after administration, GR73632 3 pmol icv, read-out: ED50, inhibition of foot-tapping behavior): 0.03 ± 0.004 mg/kg
inhibition at NK-2 receptor (NK-2 receptor): no significant inhibition
inhibition of binding [3]: ≤ 50%
SMILES: O=C(c1ccccc1Cl)c1cccnc1-c1nnn(Cc2cc(C(F)(F)F)cc(C(F)(F)F)c2)c1-c1ccncc1 [Tradipitant, {2-[1-(3,5-bistrifluoromethylbenzyl)-5-pyridin-4-yl-1H-[1,2,3]triazol-4-yl]-pyridin-3-yl}-(2-chlorophenyl)-methanone]
Total No. Emetic Episodes ([1]; 0.3 mg/kg oral): 1**
Total No. Emetic Episodes ([1]; 1.0 mg/kg oral): 1**
Total No. Emetic Episodes ([1]; 3.0 mg/kg oral): 1**
effect against apomorphine-induced emesis ([1]; each dose tested (0.3, 1.0, and 3.0 mg/kg)): effective
Concentration of tradipitant in plasma ([2]; 0.3 mg/kg oral): 90.93 ng/mL and 83.38 ng/mL and 22.59 ng/mL and 51.20 ng/mL and 41.33 ng/mL
Concentration of tradipitant in plasma ([2]; 1.0 mg/kg oral): 240.84 ng/mL and 100.97 ng/mL and 61.56 ng/mL and 175.58 ng/mL and 86.49 ng/mL
Concentration of tradipitant in plasma ([2]; 3.0 mg/kg oral): 316.20 ng/mL and 682.91 ng/mL and 119.79 ng/mL and 122.73 ng/mL and 256.58 ng/mL
effect on small bowel transit time (healthy subjects): statistically significant effect
effect on gastric emptying (healthy subjects; study underpowered): No effect
ED50, occupancy of brain NK-1 receptors (brain NK-1 receptors): 0.04 mg/kg
